Data published in ChEMBL document CHEMBL1201862, “PubChem BioAssay data set” (2004).
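Briefly, cells in 96-well plates were exposed to five compound concentrations for 48 h, and endpoints were estimated by linear interpolation. Here, GI50 denotes the concentration required for 50% inhibition of growth.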 Active and inactive are the calls of the source. No stated cut-off is given here; in the data, active = GI50 up to about 1.1 µM and inactive = higher.

How the values were obtained:
Assay in all cases: NCI-60 cell line screen, 48 h
[1] = test system: OVCAR-8
[2] = test system: A498
[3] = test system: SK-MEL-28
[4] = test system: K562
[5] = test system: SF-268
[6] = test system: A549
[7] = test system: NCI-H23
[8] = test system: KM12
[9] = test system: SF-295
[10] = test system: NCI-H226
[11] = test system: OVCAR-5
[12] = test system: NCI-H460
[13] = test system: CCRF-CEM
[14] = test system: HCT-116
[15] = test system: LOX IMVI
[16] = test system: EKVX
[17] = test system: HCT-15
[18] = test system: COLO 205
[19] = test system: SW-620
[20] = test system: UO-31

SMILES | GI50 [1] | GI50 [2] | GI50 [3] | GI50 [4] | GI50 [5] | GI50 [6] | GI50 [7] | GI50 [8] | GI50 [9] | GI50 [10] | GI50 [11] | GI50 [12] | GI50 [13] | GI50 [14] | GI50 [15] | GI50 [16] | GI50 [17] [µM] | GI50 [18] | GI50 [19] | GI50 [20]
O=C1C(Cl)=C(N2CCN(CCOCCO)CC2)C(=O)c2ncccc21 | > 10 µM (inactive) | > 10 µM (inactive) | > 10 µM (inactive) | > 10 µM (inactive) | > 10 µM (inactive) | > 10 µM (inactive) | > 10 µM (inactive) | > 10 µM (inactive) | > 10 µM (inactive) | > 10 µM (inactive) | > 10 µM (inactive) | > 10 µM (inactive) | 0.001 µM (active) | 5.07 µM (inactive) | > 10 µM (inactive) | > 10 µM (inactive) | > 10 | > 10 µM (inactive) | > 10 µM (inactive) | –
CCOC(=O)C(NC(=O)CC)(Nc1ccccc1OC)C(F)(F)F (centres undefined) | > 100 µM (inactive) | – | > 100 µM (inactive) | > 100 µM (inactive) | > 100 µM (inactive) | > 100 µM (inactive) | > 100 µM (inactive) | > 100 µM (inactive) | > 100 µM (inactive) | – | > 100 µM (inactive) | > 100 µM (inactive) | > 100 µM (inactive) | > 100 µM (inactive) | > 100 µM (inactive) | > 100 µM (inactive) | > 100 | > 100 µM (inactive) | > 100 µM (inactive) | > 100 µM (inactive)
CCOC(=O)/C=C(\C)c1ccc(OC)cc1 | > 100 µM (inactive) | 89.3 µM (inactive) | > 100 µM (inactive) | – | > 100 µM (inactive) | > 100 µM (inactive) | > 100 µM (inactive) | > 100 µM (inactive) | > 100 µM (inactive) | > 100 µM (inactive) | > 100 µM (inactive) | > 100 µM (inactive) | – | > 100 µM (inactive) | > 100 µM (inactive) | > 100 µM (inactive) | > 100 | > 100 µM (inactive) | > 100 µM (inactive) | > 100 µM (inactive)
N=C(N)Nc1ncccc1[N+](=O)[O-] | > 88.3 µM (inactive) | > 100 µM (inactive) | > 100 µM (inactive) | > 100 µM (inactive) | 74.6 µM (inactive) | > 100 µM (inactive) | > 100 µM (inactive) | 57.4 µM (inactive) | > 100 µM (inactive) | > 100 µM (inactive) | > 100 µM (inactive) | 51.8 µM (inactive) | > 100 µM (inactive) | 38.4 µM (inactive) | 33.1 µM (inactive) | – | 82.2 | 21.8 µM (inactive) | > 100 µM (inactive) | > 100 µM (inactive)
Oc1cc(CN2COc3ccccc32)c(O)cc1CNC1CCCCC1 | 24 µM (inactive) | 22 µM (inactive) | 21.8 µM (inactive) | 21.9 µM (inactive) | 16.2 µM (inactive) | > 100 µM (inactive) | 22.3 µM (inactive) | 49.9 µM (inactive) | > 100 µM (inactive) | – | > 100 µM (inactive) | 17.1 µM (inactive) | 4.53 µM (inactive) | 18.3 µM (inactive) | 16.6 µM (inactive) | 17.3 µM (inactive) | 20.1 | 17 µM (inactive) | 35.6 µM (inactive) | 35.4 µM (inactive)
CCOC(=O)/C(C#N)=C1/SC(C(=O)N/N=C/c2ccc(OC)cc2)=C(N)N1c1ccccc1 | > 100 µM (inactive) | – | 35.6 µM (inactive) | 0.205 µM (active) | 97.5 µM (inactive) | > 100 µM (inactive) | > 100 µM (inactive) | > 100 µM (inactive) | 16.1 µM (inactive) | > 100 µM (inactive) | > 100 µM (inactive) | 72.8 µM (inactive) | > 100 µM (inactive) | > 100 µM (inactive) | – | – | – | > 100 µM (inactive) | > 100 µM (inactive) | > 100 µM (inactive)
CCOC(=O)C1S/C(=N\C(=N)N[N+](=O)[O-])N=C1C (centres undefined) | > 100 µM (inactive) | > 100 µM (inactive) | > 100 µM (inactive) | > 100 µM (inactive) | > 100 µM (inactive) | > 100 µM (inactive) | > 100 µM (inactive) | > 100 µM (inactive) | > 100 µM (inactive) | > 100 µM (inactive) | > 100 µM (inactive) | > 100 µM (inactive) | – | > 100 µM (inactive) | > 100 µM (inactive) | > 100 µM (inactive) | > 100 | > 100 µM (inactive) | > 100 µM (inactive) | > 100 µM (inactive)
COc1ccc(/C=N/N=C(N)N)c(C(=O)O)c1OC | > 100 µM (inactive) | > 100 µM (inactive) | > 100 µM (inactive) | > 100 µM (inactive) | > 100 µM (inactive) | > 100 µM (inactive) | > 100 µM (inactive) | > 100 µM (inactive) | > 100 µM (inactive) | – | – | > 100 µM (inactive) | > 100 µM (inactive) | > 100 µM (inactive) | – | > 100 µM (inactive) | > 100 | > 10 µM (inactive) | > 100 µM (inactive) | > 100 µM (inactive)
O=C(CCCN1CCC2(CC1)CC(=O)N(N1CCCCCC1)C2=O)c1ccccc1 | > 100 µM (inactive) | > 100 µM (inactive) | > 100 µM (inactive) | 70.8 µM (inactive) | > 100 µM (inactive) | > 100 µM (inactive) | > 100 µM (inactive) | – | > 100 µM (inactive) | > 100 µM (inactive) | > 100 µM (inactive) | – | > 100 µM (inactive) | > 100 µM (inactive) | > 100 µM (inactive) | > 100 µM (inactive) | > 100 | > 100 µM (inactive) | – | > 100 µM (inactive)
C/N=c1/ssc(=S)n1C(C)C | 25.6 µM (inactive) | – | 1.4 µM (inactive) | 3.06 µM (inactive) | 33.8 µM (inactive) | 25.6 µM (inactive) | 12.2 µM (inactive) | 25.2 µM (inactive) | 33.9 µM (inactive) | 56.2 µM (inactive) | – | 24.2 µM (inactive) | 0.673 µM (active) | 19.7 µM (inactive) | – | 57.8 µM (inactive) | – | 16.1 µM (inactive) | 4.24 µM (inactive) | 37.7 µM (inactive)
COc1cccc(/C=C2\CCCCCC2=O)c1 | – | > 100 µM (inactive) | > 100 µM (inactive) | 72.3 µM (inactive) | > 100 µM (inactive) | > 100 µM (inactive) | > 100 µM (inactive) | 65.5 µM (inactive) | > 100 µM (inactive) | > 100 µM (inactive) | > 100 µM (inactive) | 52 µM (inactive) | – | 80.7 µM (inactive) | > 100 µM (inactive) | > 100 µM (inactive) | > 100 | > 100 µM (inactive) | > 100 µM (inactive) | 81.5 µM (inactive)
Nc1[nH]cnc2ncnc1-2 [ADENINE] | 105 µM (inactive) | 7.14 µM (inactive) | > 243 µM (inactive) | > 248 µM (inactive) | – | – | – | 153 µM (inactive) | 108 µM (inactive) | 111 µM (inactive) | > 250 µM (inactive) | – | – | > 250 µM (inactive) | 140 µM (inactive) | – | – | > 162 µM (inactive) | 231 µM (inactive) | 129 µM (inactive)
